System: GL261 cells
Assay: Orthotopic GL261 allograft survival
Assay type: in vivo, mouse
Conditions: C57BL/6, 25 mg/kg 3x weekly, compared to vehicle

CCN1CCN(Cc2ccc(Nc3ncc(F)c(-c4cc(F)c5nc(C)n(C(C)C)c5c4)n3)nc2)CC1 [Abemaciclib]
overall survival of glioma-bearing mice: effective

Reference: article PMC11974928 (bioRxiv, 2025)
